The source of these data is ChEMBL document CHEMBL5260819, “Design and synthesis of 2-phenylpyrimidine coumarin derivatives as anticancer agents” (Bioorg Med Chem Lett, 2017).

The source made the active and inactive calls. The calls are words filed in the database; no cut-off is given here.

The subject of test [1] is CNE-2. Briefly: Anticancer activity against human CNE-2 cells assessed as inhibition of cell growth. The class given is functional, cell-based.
Another test concerns KB. Briefly: Anticancer activity against human KB cells assessed as inhibition of cell growth. The class given is functional, cell-based.
For the next test, the system named is CAL-27. Kind of test: Anticancer activity against human CAL-27 cells assessed as inhibition of cell growth. The class given is functional, cell-based.
Test [2] addresses Telomerase reverse transcriptase (Homo sapiens, UniProt O14746). Kind of test: Inhibition of telomerase activity in human CNE-2 cells. The class given is cell-based.
For test [3], the system named is CNE-2. Briefly: Induction of apoptosis in human CNE-2 cells assessed as live cells at 0.5 uM incubated for 4 days by annexin V-FITC/PI double-staining method (reference value: 91.9%). The class given is functional. Conditions: time 4 day.
Test [4] has as its system CNE-2. Briefly: Induction of apoptosis in human CNE-2 cells assessed as early apoptotic cells at 0.5 uM incubated for 4 days by annexin V-FITC/PI double-staining method (reference value: 8%). The class given is functional. Conditions: time 4 day.
For test [5], the system named is CNE-2. Kind of test: Induction of apoptosis in human CNE-2 cells assessed as late apoptotic cells at 0.5 uM incubated for 4 days by annexin V-FITC/PI double-staining method (reference value: 0.1%). The test is classed as functional. The following applies: time 4 day.
In test [6] the test system is CNE-2. Briefly: Induction of apoptosis in human CNE-2 cells assessed as dead cells at 0.5 uM incubated for 4 days by annexin V-FITC/PI double-staining method (reference value: 0%). The test is classed as functional. The following applies: time 4 day.
Test [7] relates to CNE-2. Briefly: Induction of apoptosis in human CNE-2 cells assessed as live cells at 1 uM incubated for 4 days by annexin V-FITC/PI double-staining method (reference value: 91.9%). The class given is functional. The following applies: time 4 day.
Test [8] has as its system CNE-2. Kind of test: Induction of apoptosis in human CNE-2 cells assessed as early apoptotic cells at 1 uM incubated for 4 days by annexin V-FITC/PI double-staining method (reference value: 8%). The class given is functional. Conditions: time 4 day.
In test [9] the test system is CNE-2. Briefly: Induction of apoptosis in human CNE-2 cells assessed as late apoptotic cells at 1 uM incubated for 4 days by annexin V-FITC/PI double-staining method (reference value: 0.1%). The test is classed as functional. Conditions: time 4 day.
Test [10] deals with CNE-2. Briefly: Induction of apoptosis in human CNE-2 cells assessed as dead cells at 1 uM incubated for 4 days by annexin V-FITC/PI double-staining method (reference value: 0%). Conditions: time 4 day. The class given is functional.
The test system of test [11] is CNE-2. Kind of test: Anticancer activity against human CNE-2 cells assessed as reduction in telomer length at 1 uM incubated for 8 days by TRF analysis. The class given is functional. The following applies: time 8 day.
The test system of test [12] is CNE-2. Kind of test: Anticancer activity against human CNE-2 cells assessed as shortening of telomer length at 0.5 uM incubated for 8 days by TRF analysis. Conditions: time 8.0 day. The test is classed as functional, cell-based.
For test [13], the system named is CNE-2. Kind of test: Anticancer activity against human CNE-2 cells assessed as induction of senescence by measuring shortening of telomer length at 0.5 to 1 uM incubated for 8 days by TRF analysis. The following applies: dose 0.5-1 µM, time 8.0 day. The test is classed as functional, cell-based.

Sequence of Telomerase reverse transcriptase (O14746 whole entry): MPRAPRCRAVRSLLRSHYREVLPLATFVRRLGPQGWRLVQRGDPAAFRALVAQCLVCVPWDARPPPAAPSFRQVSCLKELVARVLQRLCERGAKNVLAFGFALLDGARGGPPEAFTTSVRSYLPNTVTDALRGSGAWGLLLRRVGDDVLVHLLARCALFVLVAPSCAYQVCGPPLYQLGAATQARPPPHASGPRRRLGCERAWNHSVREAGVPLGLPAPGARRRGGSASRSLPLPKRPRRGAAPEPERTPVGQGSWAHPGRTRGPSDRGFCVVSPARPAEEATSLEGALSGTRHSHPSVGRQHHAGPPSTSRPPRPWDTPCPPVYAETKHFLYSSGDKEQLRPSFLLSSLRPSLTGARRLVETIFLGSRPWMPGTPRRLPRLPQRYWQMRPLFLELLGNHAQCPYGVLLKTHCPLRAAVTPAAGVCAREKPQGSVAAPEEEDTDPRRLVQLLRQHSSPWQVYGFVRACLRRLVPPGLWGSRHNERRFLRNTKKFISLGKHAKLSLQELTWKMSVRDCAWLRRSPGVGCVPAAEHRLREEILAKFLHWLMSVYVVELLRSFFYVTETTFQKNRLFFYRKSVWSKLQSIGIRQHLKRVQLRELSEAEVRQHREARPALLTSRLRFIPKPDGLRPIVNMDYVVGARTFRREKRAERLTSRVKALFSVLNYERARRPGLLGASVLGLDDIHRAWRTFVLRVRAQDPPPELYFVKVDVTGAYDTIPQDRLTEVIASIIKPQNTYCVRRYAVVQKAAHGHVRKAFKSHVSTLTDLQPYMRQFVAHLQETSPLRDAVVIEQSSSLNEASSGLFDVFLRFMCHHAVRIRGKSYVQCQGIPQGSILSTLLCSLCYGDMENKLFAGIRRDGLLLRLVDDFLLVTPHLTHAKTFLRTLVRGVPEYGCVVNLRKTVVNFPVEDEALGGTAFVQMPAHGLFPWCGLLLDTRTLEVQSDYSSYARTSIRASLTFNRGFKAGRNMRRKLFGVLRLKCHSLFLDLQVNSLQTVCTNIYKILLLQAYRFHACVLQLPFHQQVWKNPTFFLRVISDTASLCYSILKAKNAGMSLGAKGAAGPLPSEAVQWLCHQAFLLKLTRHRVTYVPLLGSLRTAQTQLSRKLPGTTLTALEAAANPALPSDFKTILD

Consider `Nc1nc(-c2cccc(OS(=O)(=O)c3ccccc3)c2)nc2c1c(=O)oc1ccccc12`, for which the IC50 – broadly, the midpoint of a concentration-inhibition curve – with CNE-2 [1] came to 3.44 µM; in the test with KB, 6.74 µM; with CAL-27, 2.58 µM; in test [2], 3.16 µM.

Consider `Nc1nc(-c2cccc(OS(=O)(=O)c3ccc(Br)s3)c2)nc2c1c(=O)oc1ccccc12`, for which the IC50 with CNE-2 [1] was found to be 18.6 µM; with KB, 36.2 µM; in the test with CAL-27, 18.3 µM.

Take `COc1cccc2c1C(=O)c1c(O)c3c(c(O)c1C2=O)C[C@@](O)(C(=O)CO)C[C@@H]3O[C@H]1C[C@H](N)[C@H](O)[C@H](C)O1` [DOXORUBICIN]: the IC50 with CNE-2 [1] turned out to be 2.12 µM; in the test with KB it was 3.04 µM; in the test on CAL-27 it was 1.56 µM.

Consider `Nc1nc(-c2cccc(OS(=O)(=O)c3cccs3)c2)nc2c1c(=O)oc1ccccc12`, for which the IC50 in the test on CNE-2 [1] was determined as 4.24 µM; in the test with KB it was 5.62 µM; in the test on CAL-27, 10.1 µM; in test [2], 7.35 µM.

Take `Nc1nc(-c2cccc(OS(=O)(=O)c3ccc([N+](=O)[O-])cc3)c2)nc2c1c(=O)oc1ccccc12`: the IC50 with CNE-2 [1] turned out to be 16.2 µM; with KB it was 17 µM; in the test on CAL-27, 3.54 µM; in [2] it was 21.1 µM.

For `Nc1nc(-c2cccc(OS(=O)(=O)c3ccc(Br)cc3)c2)nc2c1c(=O)oc1ccccc12`, the IC50 worked out at 11.1 µM with CNE-2 [1], 15.8 µM in the test with KB and 18.1 µM in the test on CAL-27.

For the molecule `COc1ccc(S(=O)(=O)Oc2cccc(-c3nc(N)c4c(=O)oc5ccccc5c4n3)c2)cc1OC`, the IC50 in the test with CNE-2 [1] stood at 20.6 µM; in the test with KB, 29.7 µM; in the test with CAL-27 it was 17.6 µM; in [2] it was 6.32 µM.

Turning to `COC(=O)c1ccc(S(=O)(=O)Oc2cccc(-c3nc(N)c4c(=O)oc5ccccc5c4n3)c2)s1`, the values for the IC50 in the test with CNE-2 [1], in the test on KB and in the test on CAL-27 were more than 100 µM, 38.4 µM and 47.5 µM, respectively.

For the molecule `Nc1nc(-c2cccc(OS(=O)(=O)c3ccc(C(F)(F)F)cc3)c2)nc2c1c(=O)oc1ccccc12`, the IC50 is 2.34 µM in the test on CNE-2 [1], 7.35 µM with KB and 4.32 µM with CAL-27.

`CN(C)c1ccc(S(=O)(=O)Oc2cccc(-c3nc(N)c4c(=O)oc5ccccc5c4n3)c2)cc1`: the IC50 in the test with CNE-2 [1] was 1.92 µM; in the test with KB, 3.72 µM; with CAL-27, 1.97 µM; in [2] it was 0.82 µM. For the same molecule, the Activity in the test with CNE-2 [3] came to 65%; with CNE-2 [4], 28.2%; in the test on CNE-2 [5], 6.7%; in the test on CNE-2 [6], 0.1%; in the test on CNE-2 [7] it was 45.2%; in the test with CNE-2 [8], 39.5%. Besides, the Activity is on record as 15.4% with CNE-2 [9], 0% in the test on CNE-2 [10] and 0.8 kilobase with CNE-2 [11]. The outcome in the test with CNE-2 [12] and in the test on CNE-2 [13] was Active.

In the case of `CS(=O)(=O)Oc1cccc(-c2nc(N)c3c(=O)oc4ccccc4c3n2)c1`, the IC50 in the test on CNE-2 [1] was more than 100 µM; in the test on KB, more than 100 µM; with CAL-27, more than 100 µM; in [2] it was 58.6 µM.

As to `COc1ccc(S(=O)(=O)Oc2cccc(-c3nc(N)c4c(=O)oc5ccccc5c4n3)c2)cc1`, the IC50 came out at 16.6 µM in the test with CNE-2 [1], 18.6 µM with KB and 9.63 µM in the test with CAL-27.

As to `Nc1nc(-c2cccc(OS(=O)(=O)c3ccc(F)cc3)c2)nc2c1c(=O)oc1ccccc12`, the IC50 in the test on CNE-2 [1] was determined as 4.23 µM; in the test on KB, 11.6 µM; in the test with CAL-27, 4.91 µM.

For the molecule `Nc1nc(-c2cccc(OS(=O)(=O)c3ccc(Cl)s3)c2)nc2c1c(=O)oc1ccccc12`, the IC50 in the test with CNE-2 [1] came to 14.6 µM; in the test on KB it was 20.9 µM; in the test with CAL-27 it was 11.2 µM.
